The values below come from US10300071B2, “Compositions and methods for inhibition of mycobacteria” (priority 2014, dated 2019).

≈ marks a conversion by molar mass, not a printed value. Read-outs that look alike come from different tables or passages of the source.

In one experiment the test system is Mtb strain mc^2-7000. Kind of experiment: microbe, parasite or virus in culture. The experiment is classed as cell-based, Mycobacterium tuberculosis. The conditions noted are these: for MIC: 6 days incubation at 37° C., resazurin, read on the 7th day.
A further experiment deals with Mtb AccD6 (Mycobacterium tuberculosis, UniProt P9WQH5). Kind of experiment: biochemical. The experiment is classed as biochemical. The conditions noted are these: for IC50: 300 μM malonyl-CoA, inhibitor 10 μM to 2000 μM.
Where [1] appears, read: Mycobacterium tuberculosis, 144 h, read-out: MIC.
The mark [2] stands for this setting: 20 uM, pH 8.0, read-out: inhibition at 20 uM- pH 8.0.
The mark [3] stands for this setting: 20 uM, pH 8.5, read-out: inhibition at 20 uM- pH 8.5.

Chain of Mtb AccD6 (P9WQH5 whole entry, looked up): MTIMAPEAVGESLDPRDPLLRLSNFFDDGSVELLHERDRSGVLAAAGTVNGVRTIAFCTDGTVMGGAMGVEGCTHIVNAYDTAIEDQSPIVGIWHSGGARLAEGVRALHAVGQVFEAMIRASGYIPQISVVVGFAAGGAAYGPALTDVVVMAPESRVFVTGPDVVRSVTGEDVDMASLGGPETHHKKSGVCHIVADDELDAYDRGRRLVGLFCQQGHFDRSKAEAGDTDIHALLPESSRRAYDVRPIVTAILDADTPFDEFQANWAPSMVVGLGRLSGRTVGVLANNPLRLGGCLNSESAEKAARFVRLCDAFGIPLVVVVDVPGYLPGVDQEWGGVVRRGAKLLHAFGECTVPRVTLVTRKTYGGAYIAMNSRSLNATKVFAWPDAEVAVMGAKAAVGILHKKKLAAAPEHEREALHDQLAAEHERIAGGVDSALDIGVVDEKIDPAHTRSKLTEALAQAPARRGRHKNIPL

Turning to `CC(Oc1ccc(Oc2ncc(C(F)(F)F)cc2Cl)cc1)C(=O)O` (racemic) [haloxyfop, (RS)-2-{4-[3-chloro-5-(trifluoromethyl)-2-pyridyloxy]phenoxy}propionic acid, reference compound], the “whole Mycobacterium tuberculosis cell inhibition” value with Mtb strain mc^2-7000 (preliminary studies of commercially available herbicides) is “none exhibited whole Mycobacterium tuberculosis cell inhibition”. Regarding `CCOC(=O)[C@@H](C)Oc1ccc(Oc2nc3ccc(Cl)cc3s2)cc1` [NZ-246, ethyl (2R)-2-{4-[(6-chloro-1,3-benzothiazol-2-yl)oxy]phenoxy}propanoate], the MIC with Mtb strain mc^2-7000 (setting [1]) came out at 3 µM (≈ 1.13 µg/mL). As usually defined, the IC50 is the concentration that inhibits the measured activity by half. On to `C[C@@H](Oc1ccc(Oc2nc3ccc(Cl)cc3s2)cc1)C(=O)O` [NZ-247, (2R)-2-{4-[(6-chloro-1,3-benzothiazol-2-yl)oxy]phenoxy}propanoic acid], for which the IC50 at Mtb AccD6 (read-out: IC50) amounted to 2500 nM. As to `CCOC(=O)[C@@H](C)Oc1ccc(Oc2nc3ccc(Br)cc3s2)cc1` [NZ-250, ethyl (2R)-2-{4-[(6-bromo-1,3-benzothiazol-2-yl)oxy]phenoxy}propanoate], in the experiment with Mtb strain mc^2-7000 (setting [1]), the MIC came out at 3.12 µM (≈ 1.32 µg/mL).

Turning to `CCOC(=O)[C@@H](C)Oc1ccc(Oc2nc3ccccc3s2)cc1` [NZ-252, ethyl (2R)-2-[4-(1,3-benzothiazol-2-yloxy)phenoxy]propanoate], on Mtb AccD6, the IC50 result is listed as “Not Soluble”. Further, the MIC entry against Mtb strain mc^2-7000 is recorded as “Not Soluble”. With `C[C@@H](Oc1ccc(Oc2nc3ccc(Br)cc3s2)cc1)C(=O)O` [NZ-253, (2R)-2-{4-[(6-bromo-1,3-benzothiazol-2-yl)oxy]phenoxy}propanoic acid], the IC50 on Mtb AccD6 (read-out: IC50) is > 15000 nM. As to `C[C@@H](Oc1ccc(Oc2nc3ccccc3s2)cc1)C(=O)O` [NZ-254, (2R)-2-[4-(1,3-benzothiazol-2-yloxy)phenoxy]propanoic acid], the IC50 on Mtb AccD6 (read-out: IC50) was > 15000 nM.

As to `C[C@@H](Oc1ccc(Oc2nc3ccc(F)cc3s2)cc1)C(=O)O` [NZ-255, (2R)-2-{4-[(6-fluoro-1,3-benzothiazol-2-yl)oxy]phenoxy}propanoic acid], the IC50 on Mtb AccD6 (read-out: IC50) came out at 1200 nM. `COC(=O)COc1ccc(Oc2cnc3cc(Cl)ccc3n2)cc1` [NZ-256, methyl 2-{4-[(6-chloroquinoxalin-2-yl)oxy]phenoxy}acetate]: in the experiment with Mtb strain mc^2-7000 (setting [1]), the MIC was found to be 1.5 µM. Consider `O=C(O)COc1ccc(Oc2cnc3cc(Cl)ccc3n2)cc1` [NZ-257, 2-{4-[(6-chloroquinoxalin-2-yl)oxy]phenoxy}acetic acid], for which the IC50 at Mtb AccD6 (read-out: IC50) lay within 1500 to 1900 nM.

Turning to `NC(=O)COc1ccc(Oc2cnc3cc(Cl)ccc3n2)cc1` [NZ-258, 2-{4-[(6-chloroquinoxalin-2-yl)oxy]phenoxy}acetamide], the half-inhibitory concentration (IC50) on Mtb AccD6 (read-out: IC50) fell in the range of 2100 to 3100 nM. Besides, the MIC in the experiment on Mtb strain mc^2-7000 (setting [1]) was determined as 50 µM (≈ 16.5 µg/mL). Taken in the same sequence, the figures for `CS(=O)(=O)NC(=O)COc1ccc(Oc2cnc3cc(Cl)ccc3n2)cc1` [NZ-259, 2-{4-[(6-chloroquinoxalin-2-yl)oxy]phenoxy}-N-methanesulfonylacetamide] were 1600 to 2600 nM and > 50 µM. On to `CCOC(=O)[C@@H](C)Oc1ccc(Oc2nc3ccc([N+](=O)[O-])cc3s2)cc1` [NZ-260, ethyl (2R)-2-{4-[(6-nitro-1,3-benzothiazol-2-yl)oxy]phenoxy}propanoate], for which the MIC with Mtb strain mc^2-7000 (setting [1]) fell in the range of 0.19 to 2.3 µM (≈ 0.0738 to 0.893 µg/mL). Turning to `C[C@@H](Oc1ccc(Oc2nc3ccc([N+](=O)[O-])cc3s2)cc1)C(=O)O` [NZ-261, (2R)-2-{4-[(6-nitro-1,3-benzothiazol-2-yl)oxy]phenoxy}propanoic acid], at Mtb AccD6 (read-out: IC50), the IC50 turned out to be 1800 nM. For `CN(C)C(=O)COc1ccc(Oc2cnc3cc(Cl)ccc3n2)cc1` [NZ-262, 2-{4-[(6-chloroquinoxalin-2-yl)oxy]phenoxy}-N,N-dimethylacetamide], the IC50 on Mtb AccD6 (read-out: IC50) was determined as 1800 nM. Besides, in the experiment on Mtb strain mc^2-7000 (setting [1]), the MIC was > 25 µM. With `N#CCOc1ccc(Oc2cnc3cc(Cl)ccc3n2)cc1` [NZ-263, 2-{4-[(6-chloroquinoxalin-2-yl)oxy]phenoxy}acetonitrile], the IC50 on Mtb AccD6 (read-out: IC50) came to 7800 nM. The MIC in the experiment on Mtb strain mc^2-7000 (setting [1]) was > 50 µM.

Turning to `CC(O)COc1ccc(Oc2cnc3cc(Cl)ccc3n2)cc1` (stereo not shown) [NZ-264, 1-{4-[(6-chloroquinoxalin-2-yl)oxy]phenoxy}propan-2-ol], the IC50 on Mtb AccD6 (read-out: IC50) is 3400 nM. For the same molecule, in the experiment with Mtb strain mc^2-7000 (setting [1]), the MIC is > 12.5 µM. Regarding `O=C(COc1ccc(Oc2cnc3cc(Cl)ccc3n2)cc1)N1CCCCC1` [NZ-265, 2-{4-[(6-chloroquinoxalin-2-yl)oxy]phenoxy}-1-(piperidin-1-yl)ethan-1-one], the IC50 at Mtb AccD6 (read-out: IC50) was 570 nM. In the experiment on Mtb strain mc^2-7000 (setting [1]), the MIC worked out at 3 µM (≈ 1.19 µg/mL). With `O=C(COc1ccc(Oc2cnc3cc(Cl)ccc3n2)cc1)N1CCOCC1` [NZ-266, 2-{4-[(6-chloroquinoxalin-2-yl)oxy]phenoxy}-1-(morpholin-4-yl)ethan-1-one], the IC50 at Mtb AccD6 (read-out: IC50) is 990 nM. Moreover, the MIC in the experiment with Mtb strain mc^2-7000 (setting [1]) was > 12.5 µM. Taken in the same sequence, the figures for `CNC(=O)COc1ccc(Oc2cnc3cc(Cl)ccc3n2)cc1` [NZ-267, 2-{4-[(6-chloroquinoxalin-2-yl)oxy]phenoxy}-N-methylacetamide] were 2400 nM and > 25 µM. As to `Clc1ccc2nc(Oc3ccc(OCc4nnn[nH]4)cc3)cnc2c1` [NZ-268, 6-chloro-2-[4-(1H-1,2,3,4-tetrazol-5-ylmethoxy)phenoxy]quinoxaline], at Mtb AccD6 (read-out: IC50), the IC50 came to 1700 nM. Further, the MIC in the experiment with Mtb strain mc^2-7000 (setting [1]) was > 12.5 µM. In the case of `Cn1nnnc1COc1ccc(Oc2cnc3cc(Cl)ccc3n2)cc1` [NZ-270, 6-chloro-2-{4-[(1-methyl-1H-1,2,3,4-tetrazol-5-yl)methoxy]phenoxy}quinoxaline], the IC50 at Mtb AccD6 (read-out: IC50) amounted to 9700 nM. Moreover, the MIC with Mtb strain mc^2-7000 (setting [1]) is > 50 µM.

`Clc1ccc2nc(Oc3ccc(OCc4ncco4)cc3)cnc2c1` [NZ-271, 6-chloro-2-[4-(1,3-oxazol-2-ylmethoxy)phenoxy]quinoxaline]: on Mtb AccD6 (read-out: IC50), the concentration for half-maximal inhibition (IC50) is 11600 nM. In the experiment with Mtb strain mc^2-7000 (setting [1]), the MIC was > 50 µM. As for `CCOC(COc1ccc(Oc2cnc3cc(Cl)ccc3n2)cc1)OCC` [NZ-272, 6-chloro-2-[4-(2,2-diethoxyethoxy)phenoxy]quinoxaline], the IC50 at Mtb AccD6 (read-out: IC50) is 5800 nM. The MIC with Mtb strain mc^2-7000 (setting [1]) is > 12.5 µM. With `Clc1ccc2nc(Oc3ccc(OCc4ncc[nH]4)cc3)cnc2c1` [NZ-273, 6-chloro-2-[4-(1H-imidazol-2-ylmethoxy)phenoxy]quinoxaline], at Mtb AccD6 (read-out: IC50), the IC50 was found to be 7900 nM. Moreover, the MIC in the experiment on Mtb strain mc^2-7000 (setting [1]) is > 25 µM. With `O=C(COc1ccc(Oc2cnc3cc(Cl)ccc3n2)cc1)NS(=O)(=O)C(F)(F)F` [NZ-275, 2-{4-[(6-chloroquinoxalin-2-yl)oxy]phenoxy}-N-trifluoromethanesulfonylacetamide], the IC50 on Mtb AccD6 (read-out: IC50) came out at 3800 nM. In addition, in the experiment on Mtb strain mc^2-7000 (setting [1]), the MIC amounted to 12.5 µM (≈ 5.77 µg/mL). For the molecule `O=C(COc1ccc(Oc2cnc3cc(Cl)ccc3n2)cc1)NS(=O)(=O)c1ccccc1` [NZ-276, N-(benzenesulfonyl)-2-{4-[(6-chloroquinoxalin-2-yl)oxy]phenoxy}acetamide], on Mtb AccD6 (read-out: IC50), the IC50 amounted to 7300 nM. Besides, the MIC in the experiment with Mtb strain mc^2-7000 (setting [1]) stood at 3.1 µM (≈ 1.46 µg/mL). In the case of `CN1CCN(C(=O)Cc2ccc(Oc3nc4cc(F)c(F)cc4s3)cc2)CC1` [NZ-409, 2-{4-[(5,6-difluoro-1,3-benzothiazol-2-yl)oxy]phenyl}-1-(4-methylpiperazin-1-yl)ethan-1-one], the IC50 on Mtb AccD6 (read-out: IC50) came to 660 nM. Still for that read-out and setting: under `CNC(=O)Cc1ccc(Oc2nc3ccc(F)cc3s2)cc1F` [NZ-410, 2-{2-fluoro-4-[(6-fluoro-1,3-benzothiazol-2-yl)oxy]phenyl}-N-methylacetamide] stands 380 nM; under `CNC(=O)Cc1ccc(Oc2nc3cc(F)c(F)cc3s2)cc1F` [NZ-411, 2-{4-[(5,6-difluoro-1,3-benzothiazol-2-yl)oxy]-2-fluorophenyl}-N-methylacetamide], 240 nM. As usually defined, the inhibition is the percentage by which the read-out fell short of the control. Consider `CC(C)(C)OC(=O)Nc1ccc(Oc2nc3ccc(F)cc3s2)cc1` [NZ-412, terl-butyl N-{4-[(6-fluoro-1,3-benzothiazol-2-yl)oxy]phenyl}carbamate], for which the inhibition at 20 µM at Mtb AccD6 (read-out: inhibition at 20 uM) amounted to 17%. For the molecule `Nc1ccc(Oc2nc3ccc(F)cc3s2)cc1` [NZ-413, 4-[(6-fluoro-1,3-benzothiazol-2-yl)oxy]aniline], the IC50 on Mtb AccD6 (read-out: IC50) stood at 14000 nM. Turning to `CC(C)(C)OC(=O)NCC(=O)Nc1ccc(Oc2nc3ccc(F)cc3s2)cc1` [NZ-415, tert-butyl N-[({4-[(6-fluoro-1,3-benzothiazol-2-yl)oxy]phenyl}carbamoyl)methyl]carbamate], the IC50 on Mtb AccD6 (read-out: IC50) turned out to be 20000 nM. Regarding `NCCC(=O)Nc1ccc(Oc2nc3ccc(F)cc3s2)cc1` [NZ-416, 3-amino-N-{4-[(6-fluoro-1,3-benzothiazol-2-yl)oxy]phenyl}propanamide], on Mtb AccD6 (read-out: inhibition at 20 uM), the inhibition at 20 µM was 20%.

As for `NCC(=O)Nc1ccc(Oc2nc3ccc(F)cc3s2)cc1` [NZ-417, 2-amino-N-{4-[(6-fluoro-1,3-benzothiazol-2-yl)oxy]phenyl}acetamide], the inhibition at 20 µM on Mtb AccD6 (read-out: inhibition at 20 uM) was 10%. With `CONC(=O)CN1CCC(Oc2nc3ccc(Cl)cc3s2)CC1` [WUXI-N4, 2-{4-[(6-chloro-1,3-benzothiazol-2-yl)oxy]piperidin-1-yl}-N-methoxyacetamide], the “inhibition at 20 uM” value against Mtb AccD6 (20 uM) is recorded as “No inhibition at 20 uM”. For `CONC(=O)CCN1CCC(Oc2nc3ccc(Cl)cc3s2)CC1` [WUXI-N5, 3-{4-[(6-chloro-1,3-benzothiazol-2-yl)oxy]piperidin-1-yl}-N-methoxypropanamide], the “inhibition at 20 uM” value on Mtb AccD6 (20 uM) is “No inhibition at 20 uM”. As for `CC(C)NC(=O)Nc1ccc(Oc2nc3ccc(Cl)cc3s2)nc1` [WuXi-N6, 1-{6-[(6-chloro-1,3-benzothiazol-2-yl)oxy]pyridin-3-yl}-3-(propan-2-yl)urea], the inhibition at 20 µM came out at 11% on Mtb AccD6 (setting [2]) and 17% at Mtb AccD6 (setting [3]). As to `CC(C)NC(=O)Nc1ccc(Oc2nc3ccc(Cl)cc3s2)nn1` [WuXi-N7, 1-{6-[(6-chloro-1,3-benzothiazol-2-yl)oxy]pyridazin-3-yl}-3-(propan-2-yl)urea], the inhibition at 20 µM on Mtb AccD6 (read-out: inhibition at 20 uM) was 18%.

For `CC(C)NC(=O)Nc1ccc(Oc2nc3ccc(Cl)cc3s2)cn1` [WuXi-N8, 1-{5-[(6-chloro-1,3-benzothiazol-2-yl)oxy]pyridin-2-yl}-3-(propan-2-yl)urea], the figures for the inhibition at 20 µM on Mtb AccD6 (setting [2]) and at Mtb AccD6 (setting [3]) were 40% and 47%, respectively.
